Measurements reported in ChEMBL document CHEMBL1158083, “Indole alkaloids from Cephalanceropsis gracilis” (J Nat Prod, 2006).

Legend:
Assay type in all cases: functional, cell-based
MCF7 = test: Cytotoxicity against human MCF7 cells by MTT assay
NCI-H460 = test: Cytotoxicity against human NCI-H460 cells by MTT assay
SF-268 = test: Cytotoxicity against human SF-268 cells by MTT assay

`O=C1C(C2(C3(C4=Nc5ccccc5C4=O)Nc4ccccc4C3=O)Nc3ccccc3C2=O)=Nc2ccccc21` (stereo not drawn) [CEPHALINONE D] was tested, and the IC50 (MCF7) was 7.57 µM, the IC50 (NCI-H460) was 7.8 µM and the IC50 (SF-268) was 12.2 µM.
